The assay has as its target T1, Vacuolar aminopeptidase 1 (Saccharomyces cerevisiae (strain ATCC 204508 / S288c), UniProt P14904).
T1 sequence (P14904 whole entry): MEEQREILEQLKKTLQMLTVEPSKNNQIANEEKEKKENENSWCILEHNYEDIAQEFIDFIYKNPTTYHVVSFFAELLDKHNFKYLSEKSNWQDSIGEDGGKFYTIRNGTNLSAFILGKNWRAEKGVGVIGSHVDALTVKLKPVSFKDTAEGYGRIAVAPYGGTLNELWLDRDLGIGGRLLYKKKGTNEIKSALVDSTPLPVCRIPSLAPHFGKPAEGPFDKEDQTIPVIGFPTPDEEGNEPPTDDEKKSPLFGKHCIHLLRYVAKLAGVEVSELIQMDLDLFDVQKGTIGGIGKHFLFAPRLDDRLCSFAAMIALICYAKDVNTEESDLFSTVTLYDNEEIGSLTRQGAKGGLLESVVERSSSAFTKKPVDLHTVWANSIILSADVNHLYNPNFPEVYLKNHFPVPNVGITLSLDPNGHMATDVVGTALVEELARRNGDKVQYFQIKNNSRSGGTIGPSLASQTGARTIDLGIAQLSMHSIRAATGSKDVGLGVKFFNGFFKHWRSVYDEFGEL
Nature of the assay: yeast LAP4 reporter analogs, concentration series – cell-based, cherry pick 3, flow cytometry, SAR follow-up (AID 488823). Background: Flow cytometry measures light scatter and fluorescence of single cells or particles in a stream.

Setting [1] is: inactive by the depositor's call.

Consider `CCOC(=O)CS(=O)(=O)c1nc(-c2ccccc2)cc(C(F)(F)F)n1` [2-[4-phenyl-6-(trifluoromethyl)pyrimidin-2-yl]sulfonylacetic acid ethyl ester], for which the concentration giving a half-maximal response (EC50) (as a rule, the concentration at which the effect is half-maximal) under setting [1] is 41.2 µM.

Regarding `NC(=O)c1ccnc2c(O)cccc12` [8-hydroxyquinoline-4-carboxamide;2,2,2-trifluoroacetic acid], the EC50 is 35.4 µM.

Under setting [1], `COc1cccc2c(Cl)c(CCCl)c(C)nc12` [MLS000720591] displayed an EC50 of 86.4 µM.

Under setting [1], `Oc1ccc(Cl)c2cccnc12` [MLS002695956] yielded an EC50 of 208 µM.

`CCC(C)Nc1nc(N)c([N+](=O)[O-])c(Nc2cc(OC)ccc2OC)n1` (stereo not drawn) [N2-butan-2-yl-N4-(2,5-dimethoxyphenyl)-5-nitro-pyrimidine-2,4,6-triamine] showed an EC50 under setting [1] of 37.3 µM.

`Cn1cccc1C(=O)Nc1nc(-c2ccccn2)cs1` [SMR000064459] came in with a 50% effective concentration (EC50) under setting [1] of 79.6 µM.

`CCC(C)Nc1nc(N)c([N+](=O)[O-])c(Nc2ccccc2OC)n1` (stereo not drawn) [SMR000434817]: the midpoint of the response under setting [1], the EC50, lay at 35.9 µM.

Consider `CCc1sc(C(=O)Nc2nc(-c3ccccn3)cs2)cc1C` [SMR001314827], for which the midpoint of the response under setting [1], the EC50, lay at 105 µM.

The values are drawn from BindingDB's records for doi:10.7270/Q2057DDB (Nmmlsc, 2011).
